Measured values: patent US4212881A, “Streptovaricin C derivatives” (priority 1978, dated 1980)

Assays:
[1] = molecular target: reverse-transcriptase of mouse Sarcoma virus (Moloney murine leukemia virus, UniProt P03355); test: Effect for inhibiting reverse-transcriptase of mouse Sarcoma virus; type: biochemical; conditions: for inhibition at 300 µg/mL: read-out: Percent inhibition (%); for Percent inhibition (%): 300 μg/ml, virus protein (MLV-moloney), 37° C. 60 minutes
Procedure: Effect for inhibiting reverse-transcriptase of mouse Sarcoma virus.
The effect for inhibition was determined as follows:
Methanol solution containing each active ingredient at a concentration of 6 mg/ml.
Solution containing 240 μg of virus protein (MLV-moloney) in 1 ml of a buffer solution of 20 mM-tris-hydrochloric acid (pH 7.8), 0.1 M-sodium chloride and 1 mM of dithiotersitol (DTT).
Reaction medium containing 46 mM tris-hydrochloric acid (pH 8.1) 92 mM potassium chloride, 15.4 mM manganese chloride, 0.77 mM-dATP, 0.77 mM-dCTP, 0.77 mM-dGTP, 0.23 μM-3H-TTP (50 ci/mM), 7.7 mM-DTT and 0.038% NP-40.
The reaction mixture was prepared by sequentially admixing (a) 5 μl, with (b) 30 μl and (c) 65 μl and the mixture was thoroughly mixed and kept at 0° C. for 5 minutes. Then, the reaction mixture was kept at 37° C. for 60 minutes and 1 ml of cold 10% trichloroacetic acid solution was added to the reaction mixture to stop the reaction. The mixture was kept at 0° C. for 20 minutes and an insoluble components were collected on each Whatman's paper GF/c (diameter of 2.5 cm) and washed with 5 ml of cold 5% trichloroacetic acid. The residue was dried in an oven at 80° C. and charged in a viral bottle containing 10 ml of toluene solution containing scintillator PPO-POPOP, and radioactivity was measured by a scintillation spectrometer.

[2] = tested on: mouse; test: Acute toxicity (LD50) in mouse; type: in vivo
Procedure: Acute toxicity of the novel streptovaricin C derivatives (I) are remarkably low level. For example, 19-O-methyl compound (I) has LD50 to mouse of more than 1000 mg/kg in intramuscular injection and more than 3000 mg/kg in oral dose.

Row | Compound | inhibition at 300 µg/mL [1] [%] | other results
1 | CCCCOc1c(C)c(O)c2c3c1C(=O)C(C)=CC(C)(O)C(O)C(C)C(O)C1C(=O)OC(C(C)C=CC=C(C)C(=O)NC(=C(C)C3=O)C2=O)C(C)C1O (stereo not drawn) [Example 6] | 78 | –
2 | 19-O-benzyl atropisodamavaricin Fc (containing 19-O-benzyl damavaricin Fc) [Example 2] | – | Percent inhibition (%) [1]: 67%
3 | CCCOc1c(C)c(O)c2c3c1C(=O)C(C)=CC(C)(O)C(O)C(C)C(O)C1C(=O)OC(C(C)C=CC=C(C)C(=O)NC(=C(C)C3=O)C2=O)C(C)C1O (stereo not drawn) [Example 5] | 52 | –
4 | C=CCOc1c(C)c(O)c2c3c1C(=O)C(C)=CC(C)(O)C(O)C(C)C(O)C1C(=O)OC(C(C)C=CC=C(C)C(=O)NC(=C(C)C3=O)C2=O)C(C)C1O (stereo not drawn) [Example 20] | 65 | –
5 | CCCCCCCCCCCOc1c(C)c(O)c2c3c1C(=O)C(C)=CC(C)(O)C(O)C(C)C(O)C1C(=O)OC(C(C)C=CC=C(C)C(=O)NC(=C(C)C3=O)C2=O)C(C)C1O (stereo not drawn) [Example 13] | 78 | –
6 | CCCCCOc1c(C)c(O)c2c3c1C(=O)C(C)=CC(C)(O)C(O)C(C)C(O)C1C(=O)OC(C(C)C=CC=C(C)C(=O)NC(=C(C)C3=O)C2=O)C(C)C1O (stereo not drawn) [Example 7] | 52 | –
7 | CCOc1c(C)c(O)c2c3c1C(=O)C(C)=CC(C)(O)C(O)C(C)C(O)C1C(=O)OC(C(C)C=CC=C(C)C(=O)NC(=C(C)C3=O)C2=O)C(C)C1O (stereo not drawn) [Example 4] | 60 | –
8 | CC1=CC=CC(C)C2OC(=O)C(C(O)C2C)C(O)C(C)C(O)C(C)(O)C=C(C)C(=O)c2c(OCC(=O)c3ccccc3)c(C)c(O)c3c2C(=O)C(C)=C(NC1=O)C3=O (stereo not drawn) [Example 30] | 50 | –
9 | CCCCCCCCOc1c(C)c(O)c2c3c1C(=O)C(C)=CC(C)(O)C(O)C(C)C(O)C1C(=O)OC(C(C)C=CC=C(C)C(=O)NC(=C(C)C3=O)C2=O)C(C)C1O (stereo not drawn) [Example 10] | 41 | –
10 | 19-O-methyl-atropisodamavaricin Fc (containing 19-O-methyl damavaricin Fc) [Example 1] | – | LD50 ([2]; intramuscular injection): more than 1000 mg/kg; LD50 ([2]; oral dose): more than 3000 mg/kg; Percent inhibition (%) [1]: 41%
11 | CCCCCCOc1c(C)c(O)c2c3c1C(=O)C(C)=CC(C)(O)C(O)C(C)C(O)C1C(=O)OC(C(C)C=CC=C(C)C(=O)NC(=C(C)C3=O)C2=O)C(C)C1O (stereo not drawn) [Example 8] | 60 | –
12 | CC(=O)COc1c(C)c(O)c2c3c1C(=O)C(C)=CC(C)(O)C(O)C(C)C(O)C1C(=O)OC(C(C)C=CC=C(C)C(=O)NC(=C(C)C3=O)C2=O)C(C)C1O (stereo not drawn) [Example 24] | 58 | –
13 | CC1=CC=CC(C)C2OC(=O)C(C(O)C2C)C(O)C(C)C(O)C(C)(O)C=C(C)C(=O)c2c(OC3CCCCC3)c(C)c(O)c3c2C(=O)C(C)=C(NC1=O)C3=O (stereo not drawn) [Example 22] | 45 | –
